# Target: T1, factor IXa (Homo sapiens, UniProt P00740)
# T1 construct: Factor IX is a proenzyme; purchased Calbiochem (Merck KGaA) 233290
# Test: Factor IXa enzyme assay (inhibition of enzymatic activity of FIXa, substrate PEFA 3107)
# Assay type: biochemical
# Settings: 277 nM factor IXa, pH 7.4, 15 min preincubation at room temperature, read at 405 nm
# Protocol: The prepared substances from the examples were tested for inhibition of the enzymatic activity of FIXa using the substrate PEFA 3107 (Pentapharm/Loxo; via S. Black GmbH, Baumstrasse 41, 47198 Duisburg, Germany; Pr. No. 095-20) and factor IXa (Calbiochem, Merck KGaA markets Calbiochem in Germany, Life Science & Analytics, 64293 Darmstadt; Pr. No. 233290). In this method, 28 μl of test buffer (50 mM α,α,α-tris(hydroxymethyl)methylamine (TRIS), 100 mM NaCl, 5 mM CaCl2, 0.1% bovine serum albumin, pH 7.4) and 10 μl of factor IXa (277 nM final concentration in the test batch) were added to 2 μl of 10 mM dimethyl sulfoxide solution of the respective test substance, and the mixture was incubated for 15 minutes at room temperature in a 96 half-well microtiter plate. The enzyme reaction was started by addition of 10 μl of substrate (1 mM stock solution in water). The time course of the reaction was monitored at 405 nm in a microtiter plate reader (SpectraMax plus 384; Molecular Devices) for 15 minutes. The IC50 was calculated from the averaged values (duplicate determination) of a dilution series of the test substance with the aid of the software Grafit 4 (Erithacus Software, UK). The inhibition constants (Ki) were calculated according to the Cheng Prusoff equation Ki=IC50/(1+(S/Km), where S=concentration of the test substrate in the test and Km=Michaelis-Menten constant.
# T1 sequence (P00740 227-461 limits assumed): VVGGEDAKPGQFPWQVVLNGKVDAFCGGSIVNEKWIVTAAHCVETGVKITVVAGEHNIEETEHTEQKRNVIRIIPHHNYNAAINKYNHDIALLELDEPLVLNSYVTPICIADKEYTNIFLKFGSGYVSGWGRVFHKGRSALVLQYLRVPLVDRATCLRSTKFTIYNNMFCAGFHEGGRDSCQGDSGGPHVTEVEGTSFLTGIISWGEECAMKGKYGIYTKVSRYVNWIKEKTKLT
# T1 sequence (P00740 47-191 partner limits assumed): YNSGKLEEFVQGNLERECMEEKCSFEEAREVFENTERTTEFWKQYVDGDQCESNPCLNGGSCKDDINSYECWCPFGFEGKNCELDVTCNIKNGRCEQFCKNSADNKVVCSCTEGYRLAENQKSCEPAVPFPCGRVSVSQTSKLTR
row,SMILES,IC50 [nM]
1,"Nc1nc2ccc(NC(=O)[C@H](O)[C@@H](O)C(=O)Nc3ccc(Oc4ccccc4)cc3)cc2[nH]1 [Example 12, (2R,3R)—N-(2-amino-3H-benzimidazol-5-yl)-2,3-dihydroxy-N′-(4-phenoxyphenyl)-tartaramide]",370
2,"Cc1ccc(NC(=O)[C@H](O)[C@@H](O)C(=O)Nc2ccc(C(=N)N)cc2)cc1 [Example 5, (2R,3R)—N-(4-Carbamimidoylphenyl)-2,3-dihydroxy-N′-p-tolylsuccinamide; compound with trifluoroacetic acid]",170
3,"Cc1ccc(NC(=O)[C@H](O)[C@@H](O)C(=O)Nc2ccc3c(N)nccc3c2)cc1 [Example 1, (2R,3R)—N-(1-Aminoisoquinolin-6-yl)-2,3-dihydroxy-N′-p-tolyltartaramide; compound with trifluoroacetic acid]",220

# From patent US8263621B2, “Tartrate derivatives for use as coagulation factor IXa inhibitors” (Sanofi, priority 2006, dated 2012)
